In US5763453A, “Condensed indan derivatives and salts thereof” (Taiho Pharmaceutical Co., Ltd., priority 1995, dated 1998):
≈ marks a conversion by molar mass, not a printed value. Structures can show the parent of a compound that is named as a salt.

System: P 388 mouse leukemia cell line
Test: Cytocidal effect on P 388 mouse leukemia cells (crystal violet cytometry, three days' incubation)
Assay type: cell-based
Settings: P388, 72 h, 2×10^3 cells/well, read-out: IC50 (concentration at which the cell count is 50% less than that of the control)
Description: Cytocidal Effect A 96-well plate was innoculated with 2×10^3 cells/well of P 388 mouse leukemia cell line. The compound of the present invention was dissoved in purified water or dimethylsulfoxide, and the solution was diluted with medium to various concentrations and placed into respective wells and incubated. After three day's incubation, the plate was fixed with glutaraldehyde and stained with crystal violet for cytometry.

In order of rising IC50:
1. CN(C)CCNc1c2c(nc3cc(O)ccc13)-c1ccccc1C2=O [Compound 5]  0.052 µg/mL (≈ 0.156 µM)
2. CCN(CC)CCOc1c2c(nc3ccc(O)cc13)-c1ccccc1C2=O [Compound 11, 10-(((diethylamino)ethoxy)-8-hydroxy-11H-indeno[1,2-b]quinolin-11-one hydrochloride]  0.096 µg/mL
3. CN(C)CCNc1c2c(nc3ccccc13)-c1cc(O)ccc1C2=O [Compound 3-a]  0.15 µg/mL (≈ 0.45 µM)
4. CN(C)CCNc1c2c(nc3ccccc13)-c1ccc(O)cc1C2=O.Cl.Cl [Compound 2, 10-(((dimethylamino)ethyl)amino)-2-hydroxy-11H-indeno[1,2-b]quinolin-11-one dihydrochloride]  0.15 µg/mL
5. CN(C)CCCNc1c2c(nc3cc(O)ccc13)-c1ccccc1C2=O [Compound 7-a]  0.16 µg/mL (≈ 0.461 µM)
6. CN(C)CCNc1c2c(nc3ccc(O)cc13)-c1ccccc1C2=O [Compound 12]  0.16 µg/mL (≈ 0.48 µM)
7. CN1CCN(c2c3c(nc4ccc(O)cc24)-c2ccccc2C3=O)CC1 [Compound 14]  0.22 µg/mL (≈ 0.637 µM)
8. COc1ccc2c(NCCN(C)C)c3c(nc2c1)-c1ccccc1C3=O [Compound 4]  0.25 µg/mL (≈ 0.72 µM)
9. COc1ccc2c(c1)C(=O)c1c-2nc2ccccc2c1NCCN(C)C.Cl.Cl [Compound 1, 10-(((dimethylamino)ethyl)amino)-2-methoxy-11H-indeno[1,2-b]quinolin-11-one dihydrochloride]  0.34 µg/mL
10. COc1ccc2nc3c(c(N4CCN(C)CC4)c2c1)C(=O)c1ccccc1-3 [Compound 13]  0.37 µg/mL (≈ 1.03 µM)
11. CCN(CC)CCSc1c2c(nc3ccc(O)cc13)-c1ccccc1C2=O [Compound 10-a]  0.42 µg/mL (≈ 1.11 µM)
12. O=C1c2ccccc2-c2nc3ccc(O)cc3c(N3CCC(N4CCCCC4)CC3)c21 [Compound 16-a]  0.43 µg/mL (≈ 1.04 µM)
